# According to patent publication US20160024051A1, “SALTS AND SOLID FORMS OF ISOQUINOLINONES AND COMPOSITION COMPRISING AND METHODS OF USING THE SAME” (INFINITY PHARMACEUTICALS, INC., priority 2013, published 2016):
# Experiments:
# [1] = Cross species allometric scaling of CL and Vss to humans
# Method: (§1) For example, Compound 1 bis-hydrogen sulfate monohydrate was evaluated in CD-1 mouse, Wistar rat, Cyno monkey, and Beagle dog. Cross species allometric scaling of CL (drug clearance) and Vss (volume at steady state) predicts low CL, high Vss and long T112 for Compound 1 in humans.
# PI3K-β = PI3K-β (Homo sapiens, UniProt P42338); assay: Kd determination, PI3K-β; assay type: binding
# PI3K-β, sequence (P42338 whole entry): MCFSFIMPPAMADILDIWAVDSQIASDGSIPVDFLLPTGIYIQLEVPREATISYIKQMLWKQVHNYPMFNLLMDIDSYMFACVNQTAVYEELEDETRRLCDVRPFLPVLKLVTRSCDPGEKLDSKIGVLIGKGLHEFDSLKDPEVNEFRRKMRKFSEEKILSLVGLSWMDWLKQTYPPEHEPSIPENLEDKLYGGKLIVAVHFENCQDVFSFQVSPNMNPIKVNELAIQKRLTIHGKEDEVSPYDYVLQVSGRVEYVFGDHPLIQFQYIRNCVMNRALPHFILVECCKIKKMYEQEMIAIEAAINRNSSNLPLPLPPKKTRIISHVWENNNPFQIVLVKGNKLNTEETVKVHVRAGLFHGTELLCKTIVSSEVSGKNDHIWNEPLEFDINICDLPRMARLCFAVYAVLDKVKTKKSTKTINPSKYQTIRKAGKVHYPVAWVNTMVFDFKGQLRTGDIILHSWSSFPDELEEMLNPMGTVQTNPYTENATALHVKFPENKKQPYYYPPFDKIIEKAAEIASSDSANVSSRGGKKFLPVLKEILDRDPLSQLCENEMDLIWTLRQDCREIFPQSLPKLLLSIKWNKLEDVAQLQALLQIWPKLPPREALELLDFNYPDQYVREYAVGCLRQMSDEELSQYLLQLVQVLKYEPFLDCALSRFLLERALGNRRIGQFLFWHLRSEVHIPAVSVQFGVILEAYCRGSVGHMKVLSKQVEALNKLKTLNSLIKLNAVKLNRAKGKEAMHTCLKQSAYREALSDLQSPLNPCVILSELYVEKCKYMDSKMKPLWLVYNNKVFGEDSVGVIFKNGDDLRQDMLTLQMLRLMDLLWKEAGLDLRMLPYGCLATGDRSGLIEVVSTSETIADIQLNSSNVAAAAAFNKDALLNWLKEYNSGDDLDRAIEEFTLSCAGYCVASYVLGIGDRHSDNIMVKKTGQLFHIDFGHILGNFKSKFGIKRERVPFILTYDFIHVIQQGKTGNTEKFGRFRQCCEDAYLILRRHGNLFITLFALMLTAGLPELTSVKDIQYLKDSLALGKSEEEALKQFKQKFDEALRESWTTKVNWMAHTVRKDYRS
# PI3K-β, sequence (P27986 whole entry partner): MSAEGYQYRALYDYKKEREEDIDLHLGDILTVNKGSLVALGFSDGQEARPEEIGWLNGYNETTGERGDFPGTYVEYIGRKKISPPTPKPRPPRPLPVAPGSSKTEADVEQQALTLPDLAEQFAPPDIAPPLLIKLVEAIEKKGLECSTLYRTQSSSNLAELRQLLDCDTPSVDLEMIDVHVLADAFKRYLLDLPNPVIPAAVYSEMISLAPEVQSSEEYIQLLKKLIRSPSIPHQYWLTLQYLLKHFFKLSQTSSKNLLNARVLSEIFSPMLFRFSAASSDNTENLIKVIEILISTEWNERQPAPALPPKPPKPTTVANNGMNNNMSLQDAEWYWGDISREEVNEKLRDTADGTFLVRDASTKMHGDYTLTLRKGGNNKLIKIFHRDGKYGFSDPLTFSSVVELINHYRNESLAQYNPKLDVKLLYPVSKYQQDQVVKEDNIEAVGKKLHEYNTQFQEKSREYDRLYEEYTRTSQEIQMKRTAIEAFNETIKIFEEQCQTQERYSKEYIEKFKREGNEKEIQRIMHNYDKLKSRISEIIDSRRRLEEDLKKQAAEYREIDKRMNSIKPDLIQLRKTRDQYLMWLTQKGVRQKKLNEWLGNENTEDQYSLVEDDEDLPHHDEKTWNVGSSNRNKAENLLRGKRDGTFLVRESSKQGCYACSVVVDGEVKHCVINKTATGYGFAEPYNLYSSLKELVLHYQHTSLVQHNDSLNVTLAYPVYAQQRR
# PI3K-γ = PI3K-γ (Homo sapiens, UniProt P48736); assay: Kd determination, PI3K-γ; assay type: binding
# PI3K-γ, sequence (P48736 whole entry): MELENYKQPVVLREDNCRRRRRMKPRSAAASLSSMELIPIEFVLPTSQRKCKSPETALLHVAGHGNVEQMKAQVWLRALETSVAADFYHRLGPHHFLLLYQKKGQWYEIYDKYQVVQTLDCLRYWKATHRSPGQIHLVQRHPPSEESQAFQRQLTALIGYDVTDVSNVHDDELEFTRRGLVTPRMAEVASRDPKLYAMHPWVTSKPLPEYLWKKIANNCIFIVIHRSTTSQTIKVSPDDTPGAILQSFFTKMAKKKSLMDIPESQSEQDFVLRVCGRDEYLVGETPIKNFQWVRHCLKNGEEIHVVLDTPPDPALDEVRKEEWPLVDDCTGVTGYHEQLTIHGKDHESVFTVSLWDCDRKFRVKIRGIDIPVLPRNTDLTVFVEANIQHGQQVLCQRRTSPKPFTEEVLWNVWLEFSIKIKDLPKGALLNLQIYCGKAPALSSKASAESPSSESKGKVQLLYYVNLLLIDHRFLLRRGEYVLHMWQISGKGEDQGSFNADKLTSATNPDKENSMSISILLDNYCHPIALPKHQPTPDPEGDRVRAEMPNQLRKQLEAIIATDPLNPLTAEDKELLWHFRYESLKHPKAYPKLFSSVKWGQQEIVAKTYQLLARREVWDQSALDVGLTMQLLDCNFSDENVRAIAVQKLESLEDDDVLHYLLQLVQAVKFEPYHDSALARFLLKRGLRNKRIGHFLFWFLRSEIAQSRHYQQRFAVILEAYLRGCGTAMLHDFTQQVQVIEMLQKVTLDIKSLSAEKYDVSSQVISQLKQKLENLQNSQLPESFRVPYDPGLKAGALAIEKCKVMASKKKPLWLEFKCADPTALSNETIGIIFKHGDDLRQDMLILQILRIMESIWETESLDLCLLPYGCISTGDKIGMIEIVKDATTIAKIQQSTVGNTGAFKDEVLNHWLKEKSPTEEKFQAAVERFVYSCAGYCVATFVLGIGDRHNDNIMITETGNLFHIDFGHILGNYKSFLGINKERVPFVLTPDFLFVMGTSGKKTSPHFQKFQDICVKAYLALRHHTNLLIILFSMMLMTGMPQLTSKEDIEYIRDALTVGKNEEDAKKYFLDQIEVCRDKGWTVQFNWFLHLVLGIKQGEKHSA
# [2] = PK properties in non-clinical animal species (all species); assay type: in vivo, CD-1 mouse, Wistar rat, Cyno monkey, Beagle dog; conditions: non-clinical animal species
# Method: as §1
# [3] = pKa of the basic nitrogen atoms; assay type: physicochemical; conditions: at least two basic nitrogen atoms
# [4] = Free base solubility assessment in 15 solvents (free base Form 1); assay type: physicochemical
# Method: Approximately 11 mg (0.022 mmol) portions of the free base Form 1 of Compound 1 (i.e., the compound of formula (I)) were weighed into 2 ml screw-topped HPLC vials. One of 15 solvents was added to each vial in a number of aliquots (up to 100 volumes), with shaking and if necessary with heating to 40° C., in an attempt to achieve dissolution.
# PI3K-α = PI3K-α (Homo sapiens, UniProt P42336); assay: Kd determination, PI3K-α; assay type: binding
# PI3K-α, sequence (P42336 whole entry): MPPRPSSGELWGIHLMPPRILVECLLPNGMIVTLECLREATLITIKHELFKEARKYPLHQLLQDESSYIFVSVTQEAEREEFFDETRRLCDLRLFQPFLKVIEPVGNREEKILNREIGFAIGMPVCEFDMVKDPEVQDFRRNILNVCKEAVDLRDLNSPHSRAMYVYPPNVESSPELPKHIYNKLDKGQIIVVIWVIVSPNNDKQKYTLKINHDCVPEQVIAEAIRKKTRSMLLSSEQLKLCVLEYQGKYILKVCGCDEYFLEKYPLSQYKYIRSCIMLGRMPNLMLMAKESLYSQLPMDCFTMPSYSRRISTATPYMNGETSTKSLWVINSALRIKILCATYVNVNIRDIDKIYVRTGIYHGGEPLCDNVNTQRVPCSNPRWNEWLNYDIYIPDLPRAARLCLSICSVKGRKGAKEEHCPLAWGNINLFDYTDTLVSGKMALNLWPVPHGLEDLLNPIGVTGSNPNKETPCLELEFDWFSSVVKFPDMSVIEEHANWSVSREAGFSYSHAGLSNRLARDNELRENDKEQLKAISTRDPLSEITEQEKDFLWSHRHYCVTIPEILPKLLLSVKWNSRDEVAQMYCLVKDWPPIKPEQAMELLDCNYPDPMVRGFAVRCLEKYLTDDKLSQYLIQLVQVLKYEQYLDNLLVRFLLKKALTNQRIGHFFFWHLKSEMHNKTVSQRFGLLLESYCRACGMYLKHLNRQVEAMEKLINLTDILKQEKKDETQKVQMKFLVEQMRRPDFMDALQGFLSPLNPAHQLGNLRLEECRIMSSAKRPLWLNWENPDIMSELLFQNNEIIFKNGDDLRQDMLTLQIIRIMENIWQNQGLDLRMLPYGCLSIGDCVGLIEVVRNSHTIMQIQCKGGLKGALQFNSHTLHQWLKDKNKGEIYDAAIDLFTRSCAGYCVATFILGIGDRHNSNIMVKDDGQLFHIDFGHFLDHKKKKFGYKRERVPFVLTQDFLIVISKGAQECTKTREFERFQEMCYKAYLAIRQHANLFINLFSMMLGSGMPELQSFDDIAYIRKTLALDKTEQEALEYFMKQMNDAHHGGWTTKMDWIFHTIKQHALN
# PI3K-α, sequence (P27986 whole entry partner): as the sequence (P27986 whole entry partner) above
# PI3K-δ = PI3K-δ (Homo sapiens, UniProt O00329); assay: Kd determination, PI3K-δ; assay type: binding
# PI3K-δ, sequence (O00329 whole entry): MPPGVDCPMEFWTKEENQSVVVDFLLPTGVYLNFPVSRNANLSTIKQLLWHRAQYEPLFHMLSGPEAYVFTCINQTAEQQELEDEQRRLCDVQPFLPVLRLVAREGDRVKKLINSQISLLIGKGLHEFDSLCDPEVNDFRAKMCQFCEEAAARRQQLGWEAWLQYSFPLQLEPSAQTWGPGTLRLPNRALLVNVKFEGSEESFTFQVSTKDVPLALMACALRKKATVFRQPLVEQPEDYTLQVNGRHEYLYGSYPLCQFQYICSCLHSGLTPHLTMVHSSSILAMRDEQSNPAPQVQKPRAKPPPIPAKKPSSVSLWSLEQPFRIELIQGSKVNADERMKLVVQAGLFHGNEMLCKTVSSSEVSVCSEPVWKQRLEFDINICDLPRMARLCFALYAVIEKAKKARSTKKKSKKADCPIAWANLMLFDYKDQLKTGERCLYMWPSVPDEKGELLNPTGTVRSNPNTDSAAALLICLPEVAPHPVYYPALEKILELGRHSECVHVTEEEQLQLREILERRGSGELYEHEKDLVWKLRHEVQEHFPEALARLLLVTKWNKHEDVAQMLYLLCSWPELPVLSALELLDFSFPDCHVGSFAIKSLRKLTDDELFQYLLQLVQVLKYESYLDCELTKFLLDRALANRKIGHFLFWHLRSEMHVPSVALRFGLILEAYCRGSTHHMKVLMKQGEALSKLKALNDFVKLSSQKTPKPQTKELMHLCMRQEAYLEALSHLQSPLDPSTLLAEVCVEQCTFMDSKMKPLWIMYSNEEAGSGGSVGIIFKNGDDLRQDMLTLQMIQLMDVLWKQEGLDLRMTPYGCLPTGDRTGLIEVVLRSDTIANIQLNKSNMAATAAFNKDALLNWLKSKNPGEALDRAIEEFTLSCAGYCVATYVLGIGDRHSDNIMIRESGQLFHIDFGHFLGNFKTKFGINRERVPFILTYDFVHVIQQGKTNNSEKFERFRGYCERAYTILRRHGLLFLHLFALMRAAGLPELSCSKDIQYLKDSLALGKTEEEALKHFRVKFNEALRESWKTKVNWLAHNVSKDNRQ
# PI3K-δ, sequence (P27986 whole entry partner): as the sequence (P27986 whole entry partner) above
# [5] = Gravimetric vapour sorption (GVS); assay type: physicochemical
# How it was run: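 Moisture sorption isotherm at 25° C, 0-90% RH in 10% RH steps, 2 scans giving one full cycle, starting from 40% RH. Each step equilibrated 1-4 h until mass within 5% of predicted asymptote; solid re-checked by XRPD afterwards.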
# [6] = Thermodynamic aqueous solubility; assay type: physicochemical; conditions: at pH 6.47
# [7] = Storage at 40° C./75% RH (elevated humidity) for 1 week, re-analysis by XRPD/HPLC; conditions: after 1 week, XRPD
# Method: The crystalline solids were filtered, dried at ambient conditions, and stored at 40° C./75% RH for 1 week and analyzed by ^1H NMR/IC.
# Samples from the screen using amorphous free base Compound 1 were analysed by ^1H-NMR and DSC, and re-analysis by XRPD was also carried out after drying at 50° C./vacuum and storage at 40° C./75% RH (the same sample was dried and stored at elevated humidity).
# [8] = Drying experiments: heating in an oven at 125° C. for two hours, XRPD; assay type: physicochemical
# [9] = Storage at 25° C./93% RH for 1 week, re-analysis by XRPD/HPLC; assay type: physicochemical; conditions: after 1 week, XRPD
# [10] = 24 hours
smiles,measurement,setting,value
"COc1cc(-c2cccc3cc([C@H](C)Nc4nc(N)ncc4C#N)n(-c4ccccc4)c(=O)c23)ccn1 [Compound 1, (S)-2-amino-4-((1-(8-(2-methoxypyridin-4-yl)-1-oxo-2-phenyl-1,2-dihydroisoquinolin-3-yl)ethyl)amino)pyrimidine-5-carbonitrile]",CL (drug clearance) predicted in humans,[1]; allometric scaling,low
same,T112 predicted in humans,[1]; allometric scaling,long
same,Vss (volume at steady state) predicted in humans,[1]; allometric scaling,high
same,Forai in humans,[1]; suggested by oral bioavailability in animals,good
same,koff,PI3K-β,0.0126 s⁻¹
same,kon,PI3K-β,2.03e+06 M⁻¹ s⁻¹
same,Kd,PI3K-β; read-out: KD = koff/kon,6.24 nM
same,koff,PI3K-γ,0.000188 s⁻¹
same,kon,PI3K-γ,1.65e+06 M⁻¹ s⁻¹
same,Kd,PI3K-γ; read-out: KD = koff/kon,0.114 nM
same,oral bioavailability,[2],Good oral bioavailability
same,pKa,[3],~3.5
same,volumes of solvent in which Compound 1 dissolved,[4]; 2-MeTHF,50 vol.
same,volumes of solvent in which Compound 1 dissolved,[4]; DMSO,5 vol.
same,volumes of solvent in which Compound 1 did not dissolve,[4]; EtOAC,> 100 vol.
same,volumes of solvent in which Compound 1 did not dissolve,[4]; EtOH,> 100 vol.
same,volumes of solvent in which Compound 1 did not dissolve,[4]; EtOH/H2O,> 100 vol.
same,volumes of solvent in which Compound 1 did not dissolve,[4]; H2O,> 100 vol.
same,volumes of solvent in which Compound 1 dissolved,[4]; MIBK,40 vol.
same,volumes of solvent in which Compound 1 dissolved,"[4]; MeOH, shaking, if necessary heating to 40° C.",75 vol.
same,volumes of solvent in which Compound 1 dissolved,[4]; MeOH/anisole (50/50 v/v),10 vol.
same,volumes of solvent in which Compound 1 did not dissolve,[4]; TBME,> 100 vol.
same,volumes of solvent in which Compound 1 dissolved,[4]; THF,40 vol.
same,volumes of solvent in which Compound 1 did not dissolve,[4]; acetone,> 100 vol.
same,volumes of solvent in which Compound 1 did not dissolve,[4]; acetonitrile,> 100 vol.
same,volumes of solvent in which Compound 1 did not dissolve,[4]; anisole,> 100 vol.
same,volumes of solvent in which Compound 1 dissolved,[4]; chloroform,40 vol.
same,koff,PI3K-α,0.053 s⁻¹
same,kon,PI3K-α,5.43e+06 M⁻¹ s⁻¹
same,Kd,PI3K-α; read-out: KD = koff/kon,9.76 nM
same,koff,PI3K-δ,0.000252 s⁻¹
same,kon,PI3K-δ,8.23e+06 M⁻¹ s⁻¹
same,Kd,PI3K-δ; read-out: KD = koff/kon,0.0306 nM
COc1cc(-c2cccc3cc([C@H](C)Nc4nc(N)ncc4C#N)n(-c4ccccc4)c(=O)c23)ccn1.O [Compound 1 Free Base Form 2],"GVS: immediate moisture uptake, up to","[5]; 40-50% RH, stable on sorption up to 90% RH and desorption down to 10% RH",uptake (40-50% RH up to 5.7% w/w) which remains
same,GVS: moisture on loading,"[5]; loaded at 40% RH, 25° C.",4.7% w/w moisture on loading. Immediate moisture
same,GVS: XRPD after the experiment,[5]; re-analysis by XRPD after GVS,40% RH. Slight changes by XRPD after the experiment.
same,Thermodynamic aqueous solubility,[6],"0.005 mg/mL, at pH 6.47"
same,Stability at 40° C./75% RH,[7],Very slight changes after 1 week
same,Drying experiments: changes by XRPD,[8],very slight changes by XRPD
same,Stability at 25° C./93% RH,[9],Very slight changes after 1 week
COc1cc(-c2cccc3cc([C@H](C)Nc4nc(N)ncc4C#N)n(-c4ccccc4)c(=O)c23)ccn1,crystallinity after standing at RT,[10],decreases
